From patent USRE42700E1, “Induction of apoptosis in cancer cells” (Sanford-Burnham Medical Research Institute, priority 2001, dated 2011)

How the values were obtained:
RARβ = RARβ (Homo sapiens, UniProt P10826); assay: activation of RARβ on the (TREpal)2-tk-CAT reporter construct; type: cell-based; conditions: 1.0 μM
RXRα = RXRα (Homo sapiens, UniProt P19793); assay: activation of RXRα on the (TREpal)2-tk-CAT reporter construct; type: cell-based; conditions: 1.0 μM
RARγ = RARγ (Homo sapiens, UniProt P13631); assay: activation of RARγ on the (TREpal)2-tk-CAT reporter construct; type: cell-based
RARγ, sequence (P13631 whole entry, species assumed): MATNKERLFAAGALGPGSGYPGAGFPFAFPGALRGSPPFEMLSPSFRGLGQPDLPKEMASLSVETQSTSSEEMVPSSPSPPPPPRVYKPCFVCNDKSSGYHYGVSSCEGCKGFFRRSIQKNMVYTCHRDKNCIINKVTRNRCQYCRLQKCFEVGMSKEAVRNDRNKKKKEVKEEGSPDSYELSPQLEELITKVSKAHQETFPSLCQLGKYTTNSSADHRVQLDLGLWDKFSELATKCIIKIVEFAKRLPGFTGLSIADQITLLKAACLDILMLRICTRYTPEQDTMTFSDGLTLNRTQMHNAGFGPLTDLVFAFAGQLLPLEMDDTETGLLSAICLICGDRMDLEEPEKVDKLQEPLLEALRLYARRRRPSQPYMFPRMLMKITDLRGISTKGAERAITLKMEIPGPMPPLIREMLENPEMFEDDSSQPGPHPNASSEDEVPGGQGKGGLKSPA

[1] = system: leukemic blasts from patients (AML or CML in blast crisis); assay: apoptosis in primary cultures of patient leukemic blasts; type: cell-based, human
Procedure: Cell Growth: IL-3-transfected M07e cells have been described by Thacker, D. J., et al., Leukemia 8: 871-877 (1994). Cells were grown in RPMI supplemented with 5 percent heat-inactivated fetal bovine serum (FBS) and 25 μg/ml gentamycin in a […], 5% CO2, and 100% humidity environment. Leukemic cells were obtained from patients who met the criteria for the diagnosis of AML or CML in blast crisis (see Table 1). Studies were approved by the Wayne State University Institutional Review Board. Informed consent was obtained from all patients. Leukemic blasts from patients were isolated using Ficoll hypaque. Cells at the interface between plasma and red blood cells were diluted with sterile PBS, then layered over Ficoll hypaque (1.077 density), and the leukemic cells collected at the interface. The sample to be studied represented greater than 90% blasts. The patient leukemia samples were grown in RPMI medium supplemented with 10% FBS, gentamycin (25 μg/ml), IL-3 (20 ng/ml), SCF (25 ng/ml), GM-CSF (20 ng/ml) and G-CSF (20 ng/ml). Cell growth was assessed using a cell proliferation kit.
Apoptosis Quantification: Staining of apoptotic cells was performed as described by Gavreli, Y., et al., (J. Cell. Biol. 119: 493-501 (1992)) and Whitacre, C. M., et al., (Cancer Res. 55: 3697-3701 (1995)). After 3-Cl-AHPC treatment, cells were harvested, washed with PBS and resuspended at 1×10^6 cells/ml. Cell suspensions (50 μl) were stained with […] of acridine orange solution ([…]) in PBS in the dark. Cells displaying fragmented DNA were detected using a fluorescent microscope. Apoptotic cells were also detected using a kit. Cells that incorporated fluorescein labeled deoxyuridine triphosphate were detected using flow cytometry.

caspases in M07e cells = assay: caspase activation in M07e cells; type: cell-based, human
Procedure: (§1) Activation of caspases-1, -2, -3, -6, -8 and -9 was assessed using a caspase activation kit.

[2] = system: caspases in patient leukemic cells; assay: caspase activation in patient leukemic cells; type: cell-based, human; conditions: 1 μM
Procedure: as §1

[3] = system: PARP in M07e cells and patient leukemic blasts; assay: PARP cleavage by Western blot; type: cell-based, human; conditions: 1 μM, by 24 hours
Procedure: (§2) Western Blots: Western blots were performed according to the protocol of Sheikh, M. S., et al., (Oncogene, 9: 3407-3415 (1994)). Logarithmically growing cells were treated with 3-Cl-AHPC for various times and cells were harvested and lysed in Laemmli lysis buffer (0.5 M Tris-HCl, pH 6.8, 0.002M EDTA, 10% glycerol, 10% sodium dodecyl sulfate (SDS), and 5% β-mercaptoethanol). Protein lysates (50 μg/lane) were electrophoresed on 12% SDS-polyacrylamide gels and transferred to nitrocellulose membranes. Membranes were blocked with 5% nonfat dried milk in PBS/0.5% Tween 20 and then incubated with the appropriate antibodies. Horseradish peroxidase-conjugated rabbit anti-mouse IgG was used as the secondary antibody, and bands were developed using the Amersham ECL non-radioactive method.

[4] = system: Bcl-2 and Mcl-1 in patient leukemic cells and M07e cells; assay: Bcl-2 and Mcl-1 expression; type: cell-based, human; conditions: during 3-Cl-AHPC-mediated apoptosis
Procedure: as §2

Bcl-XL in leukemic cells = assay: Bcl-XL cleavage by Western blot; type: cell-based, human; conditions: 1 μM
Procedure: as §2

Murine AML 1498 cells = assay: murine AML 1498 implanted intravenously in C57BL/6 mice
Excerpt: Tumor Maintenance: Murine AML1498 cells were maintained in the mouse strain of origin (C57BL/6) and transplanted into this same inbred strain chemotherapy trials. Individual mouse body weights for each experiment were within five grams, and all mice were more than 20 grams (mean) at the start of therapy. Mice were supplied food and water ad libitum.
Treatment was started the day after implantation of AML cells.
End Points for Assessing Antitumor Activity: The following quantitative endpoints were used to assess antitumor activity
a) Percent Increase in Lifespan (% ILS): For leukemic mice: • % ILS=(T−C)/C×100; in which C=median day of death of control group and T=median day of death of treated group. Survival was the endpoint; with moribund mice sacrificed. Cause of death was verified by necropsy.
b) Calculation of Tumor Cell Kill: For leukemic survival trials, the log10 cell kill was calculated from the following formula:
[formula] where T is median day of death for treated group and C is median day of death for control group (Corbett, T. H., et al., Invest. New Drugs, 17: 17-27 (1999) and Teicher, B. A., In vivo tumor response end points, In Tumor Models in Cancer Research, B. Teicher, editor, Humana Press Inc./Totowa, N.J., pp. 593-616 (2001)). Td is determined from differences in the median days of death of the titered control groups.

cancer cells = assay: mitochondrial membrane potential (Δψm) using Rh123; type: cell-based; conditions: 10^−6 M
MDA-MB-468 = assay: apoptosis induction / cell death in breast cancer cells; type: cell-based, human
[5] = total dose 80 mg/kg, qd 1-5, 5 × 10^6 cells
[6] = total dose 115 mg/kg, qd 1-5, 5 × 10^6 cells
[7] = total dose 140 mg/kg, qd 1-4, 5 × 10^6 cells

RXRα, sequence (P19793 whole entry): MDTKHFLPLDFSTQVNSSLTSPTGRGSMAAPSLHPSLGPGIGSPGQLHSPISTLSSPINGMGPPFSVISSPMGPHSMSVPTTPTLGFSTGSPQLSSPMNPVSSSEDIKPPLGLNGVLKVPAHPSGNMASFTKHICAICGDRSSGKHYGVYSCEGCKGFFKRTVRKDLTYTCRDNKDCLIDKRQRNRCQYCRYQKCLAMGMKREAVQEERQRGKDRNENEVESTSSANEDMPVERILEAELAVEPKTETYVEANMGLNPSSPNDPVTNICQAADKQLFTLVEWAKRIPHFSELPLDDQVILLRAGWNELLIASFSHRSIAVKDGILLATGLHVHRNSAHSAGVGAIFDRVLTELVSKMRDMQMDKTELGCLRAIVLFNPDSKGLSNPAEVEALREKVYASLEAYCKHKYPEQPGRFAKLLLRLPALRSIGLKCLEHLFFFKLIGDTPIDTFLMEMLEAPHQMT
RARβ, sequence (P10826 whole entry, species assumed): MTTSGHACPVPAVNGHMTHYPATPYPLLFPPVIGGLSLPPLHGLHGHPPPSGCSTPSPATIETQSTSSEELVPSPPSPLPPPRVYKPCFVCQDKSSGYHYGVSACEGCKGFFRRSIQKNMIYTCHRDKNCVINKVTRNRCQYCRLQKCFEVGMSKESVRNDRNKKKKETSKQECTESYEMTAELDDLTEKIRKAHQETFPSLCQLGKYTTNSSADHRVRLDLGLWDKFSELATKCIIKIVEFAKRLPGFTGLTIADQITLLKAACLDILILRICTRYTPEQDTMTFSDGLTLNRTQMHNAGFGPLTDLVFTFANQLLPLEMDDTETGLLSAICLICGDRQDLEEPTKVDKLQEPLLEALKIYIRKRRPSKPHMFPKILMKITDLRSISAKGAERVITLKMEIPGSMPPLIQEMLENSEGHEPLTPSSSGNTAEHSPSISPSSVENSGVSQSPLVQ

Question: Which “activation of RARβ” value (RARβ) does the source give for `O=C(O)/C=C/c1ccc(-c2ccc(O)c(C34CC5CC(CC(C5)C3)C4)c2)c(Cl)c1` [Example 3-Cl-AHPC, (E)-4-[3-(1-Adamantyl)-4-hydroxyphenyl]-3-chlorocinnamic acid] here?
Answer: Its value is “does not activate”.

Question: And the “activation of RXRα” value (RXRα)?
Answer: Its value is “does not activate”.

Question: And the “activation of RARγ relative to that of 1.0 μM tRA” value (RARγ)?
Answer: Its value is “less than 10%”.

Question: And the “apoptosis of leukemic blasts” value ([1]; 0.5 μM)?
Answer: The value was 60%.

Question: What about the induction of apoptosis ([1]; 1 μM, 11 primary cultures) of the same compound?
Answer: The induction of apoptosis was over 80%.

Question: And the “apoptosis of leukemic blasts” value ([1]; 0.2 and 0.1 μM)?
Answer: Its value is “minimal apoptosis”.

Question: And the “proliferation and apoptosis of primary human AML cultures (FIG. 13)” value ([1]; non-APL AML samples)?
Answer: Its value is “inhibited the proliferation and induced apoptosis”.

Question: What about the “concentration required to induce apoptosis” value ([1]; patient leukemic cells) of the same compound?
Answer: Its value is 0.5 µM.

Question: What about the “increase in activity of caspase-2” value (caspases in M07e cells; 0.5 μM) of the same compound?
Answer: Its value is “approximately 2 fold”.

Question: What about the “increase in activity of caspase-3” value (caspases in M07e cells; 0.5 μM) of the same compound?
Answer: The value was “approximately 2 fold”.

Question: What about the “increase in activity of caspase-6” value (caspases in M07e cells; 0.5 μM) of the same compound?
Answer: Its value is “approximately 2 fold”.

Question: What about the “increase in activity of caspase-8” value (caspases in M07e cells; 0.5 μM) of the same compound?
Answer: The value was “approximately 2 fold”.

Question: What about the “increase in activity of caspase-2” value (caspases in M07e cells; 1 μM) of the same compound?
Answer: Its value is “approximately 4 fold”.

Question: And the “increase in activity of caspase-3” value (caspases in M07e cells; 1 μM)?
Answer: The value was 2.5 fold.

Question: And the “increase in activity of caspase-6” value (caspases in M07e cells; 1 μM)?
Answer: The value was 3 fold.

Question: What about the “increase in activity of caspase-8” value (caspases in M07e cells; 1 μM) of the same compound?
Answer: Its value is “approximately 4 fold”.

Question: And the “activation of caspase-2” value [2]?
Answer: Its value is 6 fold.

Question: What about the “activation of caspase-5” value [2] of the same compound?
Answer: Its value is “two-fold”.

Question: What about the “activation of caspase-6” value [2] of the same compound?
Answer: The value was 4 fold.

Question: And the “activation of caspase-8” value [2]?
Answer: The value was 4 fold.

Question: What about the “activation of caspase-9” value [2] of the same compound?
Answer: Its value is “two-fold”.

Question: What about the “activation of caspase-3” value ([2]; 24 hours) of the same compound?
Answer: The value was 8 fold.

Question: And the “activation of caspase-3” value ([2]; 48 hours)?
Answer: Its value is 14 fold.

Question: And the PARP cleavage [3]?
Answer: The PARP cleavage was “rapid cleavage of 116-Kd PARP”.

Question: And the “modulation of Bcl-2 and Mcl-1 expression” value [4]?
Answer: The value was “no modulation of their expression”.

Question: And the Bcl-XL cleavage (Bcl-XL in leukemic cells)?
Answer: Its Bcl-XL cleavage is “cleavage of Bcl-XL to a 18-kD product”.

Question: What about the animal deaths (Murine AML 1498 cells; 140 mg/kg total dose over four days) of the same compound?
Answer: Its animal deaths is “no animal deaths”.

Question: And the “Body Wt. Loss” value (Murine AML 1498 cells; [5])?
Answer: The value was “+0.0%”.

Question: What about the ILS (Murine AML 1498 cells; [5]) of the same compound?
Answer: Its ILS is 50%.

Question: What about the “Log cell kill” value (Murine AML 1498 cells; [5]) of the same compound?
Answer: The value was 2.6.

Question: What about the “Mean Body Wt. Loss” value (Murine AML 1498 cells; [5]) of the same compound?
Answer: Its value is “+0.0 g/mouse”.

Question: What about the “Median Day of Tumor Death (range)” value (Murine AML 1498 cells; [5]) of the same compound?
Answer: Its value is 9 (8,9,9,9,10).

Question: What about the ILS (Murine AML 1498 cells; [6]) of the same compound?
Answer: Its ILS is 83%.

Question: And the “Log cell kill” value (Murine AML 1498 cells; [6])?
Answer: The value was 3.3.

Question: What about the “Median Day of Tumor Death (range)” value (Murine AML 1498 cells; [6]) of the same compound?
Answer: The value was 11 (10,10,11,11,11).

Question: What about the “Mean Body Wt. Loss” value (Murine AML 1498 cells; total dose 115 mg/kg, qd 1-5, 5 × 10^6 cells, negative = loss) of the same compound?
Answer: The value was −1.2 g/mouse.

Question: What about the ILS (Murine AML 1498 cells; [7]) of the same compound?
Answer: The ILS was 83%.

Question: And the “Log cell kill” value (Murine AML 1498 cells; [7])?
Answer: The value was 3.3.

Question: And the “Median Day of Tumor Death (range)” value (Murine AML 1498 cells; [7])?
Answer: Its value is 11(10,11,11,11,11).

Question: What about the “Mean Body Wt. Loss” value (Murine AML 1498 cells; total dose 140 mg/kg, qd 1-4, 5 × 10^6 cells, negative = loss) of the same compound?
Answer: Its value is −3.6 g/mouse.

Question: And the “percentage of cells with Δψm loss” value (cancer cells)?
Answer: Its value is “significant increases in the percentage of cells with Δψm loss”.

Question: What about the ED50 (concentration that results in 50% cell death) (MDA-MB-468) of the same compound?
Answer: Its ED50 (concentration that results in 50% cell death) is 710 nM.
